Measured values published in ChEMBL document CHEMBL5055668 (J Med Chem, 2021).
Calls of active or inactive are those of the source. The calls are words filed in the database; no cut-off is given here.

Legend:
Mus musculus [1] = experiment: Toxicity in C57BL/6 mouse allografted with mouse MC38 cells assessed as spleen damage at 5 to 20 mg/kg, po administered every day for 2 weeks by histopathological analysis; assay type: organism-based, MC-38; details: in vivo, 336 h, dose 5-20 mg/kg
MC-38 [2] = experiment: Induction of conversion of M2-macrophages to the M1 phenotype in CM of MC38 cells treated C57BL/6 mouse BMDM cells transfected with CSF1R shRNA2 assessed as decrease in Nos2 mRNA expression measured after 24 hrs by qPCR analysis; assay type: functional, cell-based
THP-1 [3] = experiment: Induction of conversion of M2-macrophages to the M1 phenotype in CM of HCT116 cells treated […]-differentiated human THP-1 cells assessed as upregulation of Tnf mRNA expression at 30 to 100 nM incubated for 24 hrs by qPCR analysis; assay type: functional, cell-based; details: dose 30-100 nM
[4] = biological target: T1, Macrophage colony-stimulating factor 1 receptor (Mus musculus, UniProt P09581); experiment: Binding affinity to CSF-1R in C57BL/6 mouse BMDM cells assessed as dissociation constant by SPR assay
T1 sequence (P09581 whole entry): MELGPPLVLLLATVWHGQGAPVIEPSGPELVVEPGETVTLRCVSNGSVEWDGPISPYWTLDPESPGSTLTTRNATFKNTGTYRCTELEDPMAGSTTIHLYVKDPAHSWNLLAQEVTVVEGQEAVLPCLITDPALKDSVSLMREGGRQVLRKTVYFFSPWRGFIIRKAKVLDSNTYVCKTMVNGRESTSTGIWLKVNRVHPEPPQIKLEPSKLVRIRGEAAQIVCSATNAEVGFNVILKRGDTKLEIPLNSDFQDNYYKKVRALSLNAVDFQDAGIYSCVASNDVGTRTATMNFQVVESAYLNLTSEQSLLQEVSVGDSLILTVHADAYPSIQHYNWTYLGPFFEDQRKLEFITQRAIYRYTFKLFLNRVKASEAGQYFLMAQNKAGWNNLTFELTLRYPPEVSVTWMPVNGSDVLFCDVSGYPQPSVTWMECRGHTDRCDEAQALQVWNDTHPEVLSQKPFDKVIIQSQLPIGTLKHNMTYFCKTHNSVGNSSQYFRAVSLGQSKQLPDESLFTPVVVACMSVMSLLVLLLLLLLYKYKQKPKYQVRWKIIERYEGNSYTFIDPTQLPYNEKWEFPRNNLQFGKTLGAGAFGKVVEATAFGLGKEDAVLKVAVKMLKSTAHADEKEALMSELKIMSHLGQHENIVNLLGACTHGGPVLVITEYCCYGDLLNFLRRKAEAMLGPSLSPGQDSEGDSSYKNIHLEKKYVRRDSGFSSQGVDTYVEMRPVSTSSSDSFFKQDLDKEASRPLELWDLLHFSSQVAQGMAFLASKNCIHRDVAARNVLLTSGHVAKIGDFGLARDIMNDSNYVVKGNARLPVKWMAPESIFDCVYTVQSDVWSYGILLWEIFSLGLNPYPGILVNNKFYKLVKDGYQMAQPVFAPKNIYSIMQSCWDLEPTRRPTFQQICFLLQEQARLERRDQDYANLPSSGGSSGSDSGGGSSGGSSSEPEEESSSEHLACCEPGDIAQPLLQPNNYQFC

Mus musculus [5] = experiment: Toxicity in C57BL/6 mouse allografted with mouse MC38 cells assessed as kidney damage at 5 to 20 mg/kg, po administered every day for 2 weeks by histopathological analysis; assay type: organism-based, MC-38; details: in vivo, 336 h, dose 5-20 mg/kg
BMDM [6] = experiment: (§1) Induction of conversion of M2-macrophages to the M1 phenotype in CM of MC38 cells treated C57BL/6 mouse BMDM cells assessed as down regulation of Il10 mRNA expression at 30 to 100 nM preincubated with culture medium of MC38 cells for 24 hrs followed by compound addition and measured after 24 hrs by qPCR analysis; assay type: functional, cell-based; details: dose 30-100 nM
[7] = biological target: T2, Macrophage colony-stimulating factor 1 receptor (Mus musculus) (UniProt P09581); experiment: Binding affinity to CSF-1R in C57BL/6 mouse BMDM cells assessed as increase in melting temperature at 100 nM after 1 hr by CETSA; assay type: cell-based
T2 sequence (whole entry): T1 sequence (P09581 whole entry)

THP-1 [8] = experiment: Induction of conversion of M2-macrophages to the M1 phenotype in CM of HCT116 cells treated […]-differentiated human THP-1 cells assessed as down regulation of Arg1 mRNA expression at 30 to 100 nM incubated for 24 hrs by qPCR analysis; assay type: functional, cell-based; details: dose 30-100 nM
THP-1 [9] = experiment: Induction of conversion of M2-macrophages to the M1 phenotype in CM of HCT116 cells treated […]-differentiated human THP-1 cells assessed as upregulation of Il6 mRNA expression at 30 to 100 nM incubated for 24 hrs by qPCR analysis; assay type: functional, cell-based; details: dose 30-100 nM
HCT-116 [10] = experiment: Antitumor activity against human HCT-116 cells xenografted in nude BALB/c mouse assessed as tumor growth inhibition at 5 to 20 mg/kg, po administered daily for 2 weeks; assay type: functional, organism-based; details: dose 5-20 mg/kg
[11] = biological target: T2, Macrophage colony-stimulating factor 1 receptor (Mus musculus); experiment: Inhibition of CSF-1R signaling pathway in C57BL/6 mouse BMDM cells assessed as reduction in M-CSF induced CSF-1R phosphorylation at 100 nM preincubated for 12 hrs followed by M-CSF stimulation for 30 mins by Western blot analysis; assay type: cell-based
THP-1 [12] = experiment: Induction of conversion of M2-macrophages to the M1 phenotype in CM of HCT116 cells treated […]-differentiated human THP-1 cells assessed as upregulation of Il12 mRNA expression at 30 to 100 nM incubated for 24 hrs by qPCR analysis; assay type: functional, cell-based; details: dose 30-100 nM
MC-38 [13] = experiment: Antitumor activity against mouse MC38 cells allografted in macrophage depleted C57BL6 mouse at 20 mg/kg, po administered daily for 2 weeks; assay type: functional, organism-based
[14] = biological target: T2, Macrophage colony-stimulating factor 1 receptor (Mus musculus); experiment: Inhibition of CSF-1R signaling pathway in C57BL/6 mouse BMDM cells assessed as reduction in M-CSF induced CSF-1R phosphorylation preincubated for 12 hrs followed by M-CSF stimulation for 30 mins by Western blot analysis; assay type: cell-based; details: dose 100.0 nM
[15] = biological target: T2, Macrophage colony-stimulating factor 1 receptor (Mus musculus); experiment: Inhibition of CSF-1R signaling pathway in C57BL/6 mouse BMDM cells assessed as reduction in M-CSF induced AKT phosphorylation preincubated for 12 hrs followed by M-CSF stimulation for 30 mins by Western blot analysis; assay type: cell-based
HCT-116 [16] = experiment: Antiproliferative activity against human HCT116 cells cultured with culture medium of M2-macrophages assessed as reduction in cell viability at 10 to 100 nM incubated for 24 hrs by CCK-8 assay; assay type: functional, cell-based; details: dose 10-100 nM
BMDM [17] = experiment: as §1, with “upregulation” for “down regulation”, “Tnf” for “Il10”; assay type: functional, cell-based; details: dose 30-100 nM
MC-38 [18] = experiment: Antitumor activity against mouse MC38 cells allografted in C57BL6 mouse assessed as reduction in AKT phosphorylation in tumor tissue at 5 to 10 mg/kg, po administered daily for 2 weeks by Western blot analysis; assay type: functional, organism-based; details: dose 5-10 mg/kg
MC-38 [19] = experiment: Antitumor activity against mouse MC38 cells allografted in C57BL6 mouse assessed as increase in Il12 mRNA expression at 10 to 20 mg/kg, po administered daily for 2 weeks by qPCR analysis; assay type: functional, organism-based; details: dose 10-20 mg/kg

Kd [4]: 3.4 nM
Tm [7]: 68 °C
inhibition [11]: Active
inhibition [14]: Dose-dependent effect
inhibition [15]: Dose-dependent effect
SMILES: Cc1[nH]c(/C=C2\C(=O)Nc3cc(NC(=O)Nc4cc(C(C)(C)C)on4)ccc32)c(C)c1NC(=O)CN1CCN(C)CC1
Activity (Mus musculus [1]): Non-Toxic
Activity (MC-38 [2]): Active
Activity (THP-1 [3]): Active
Activity (Mus musculus [5]): Non-Toxic
Activity (BMDM [6]): Active
Activity (THP-1 [8]): Active
Activity (THP-1 [9]): Active
Activity (HCT-116 [10]): inactive
Activity (THP-1 [12]): Active
Activity (MC-38 [13]): inactive
Activity (HCT-116 [16]): Active
Activity (BMDM [17]): Active
Activity (MC-38 [18]): Active
Activity (MC-38 [19]): Active
